“Also recorded” adds a separate entry of the source. Like-named read-outs stand apart in the source and are kept apart here.
B1: LBNL-9827-2: antifungal polypeptide from Monascus ruber IMV 00127; 3 additional N-terminal amino acids versus SEQ ID NO:7 (protein)
chain: DVQLSKFGGECSLKHNTCTYLKGGKNHVVNCGSAANKKCKSDRHHCEYDEHHKRVDCQTPV

Assays:
Diplodia maydis (DMA) = format: cell-based; conditions: plate assay, qualitative
[1] = tested on: Fusarium verticillioides (FVE); format: cell-based
[2] = tested on: Colletotrichum graminicola (CGR); format: cell-based; conditions: plate assay, qualitative
[3] = tested on: Fusarium graminearum (FGR); format: cell-based; conditions: plate assay, qualitative
C. graminicola [4] = assay: upper stalk resistance of transgenic maize plants; format: in vivo, Colletotrichum graminicola; conditions: T0 transgenic maize, uppermost stalk internode, about five days after inoculation, 10 cm^2 area around inoculation site; control 84.7±2.6%
[5] = tested on: F. verticilioides line that expresses the reporter gene β-glucuronidase (GUS); assay: Fusarium verticillioides challenge assay of maize seedlings (GUS activity); format: in vivo; conditions: maize seedlings transformed with PHP22300; three days after spore exposure; 4 explants per event
[6] = tested on: Fusarium verticillioides (FVE); assay: antifungal activity assay of transgenic maize callus extracts; format: cell-based; conditions: against FVE, qualitative
C. graminicola [7] = assay: lower stalk resistance of transgenic maize plants; format: in vivo, Colletotrichum graminicola; conditions: T0 transgenic maize, lowest internode inoculated 10 DAP, scored after 21 days, five lowermost internodes; empty vector control 4.0±0.2

Molecule | antifungal activity against DMA (Diplodia maydis (DMA)) | antifungal activity against FVE [1] | antifungal activity against CGR [2] | antifungal activity against FGR [3] | mean percent infected area (C. graminicola [4]) | antifungal activity against DMA (Diplodia maydis (DMA); listed as SEQ ID NO:1) | average GUS activity (correlates with fungal biomass) relative to controls [5] | antifungal activity of protein produced and isolated from transgenic maize callus [6] | antifungal activity against CGR ([2]; listed as SEQ ID NO:1) | antifungal activity against FGR ([3]; listed as SEQ ID NO:1) | mean score (number of internodes showing more than 75% disease) (C. graminicola [7]) | antifungal activity against DMA (Diplodia maydis (DMA); listed as SEQ ID NO:9) | antifungal activity against CGR ([2]; listed as SEQ ID NO:9) | antifungal activity against FGR ([3]; listed as SEQ ID NO:9)
LBNL-5197/8-2: antifungal polypeptide from Penicillium miczyinskii strain K01-17A4 (LSKYGGECSLAHNTCTYLKGGKNQVVACGTAANKRCKTDRHHCEYDEYHKTVDCQTPV) | display antifungal activity | anti-FVE activity; also recorded: display antifungal activity | display antifungal activity | display antifungal activity |  |  |  |  |  |  |  |  |  | 
LBNL-5220: antifungal polypeptide (55 amino acids, mature mass 6174 Da) isolated from Penicillium simplicissimum fermentation broth (LKYTGTCTRANNQCKYKGQNDRDTFVKCPTFANKKCTRDGAPCSFDSYSRAVTCD) |  | showed antifungal activity; also recorded: display antifungal activity |  |  | 54.4±1.4% | showed antifungal activity; also recorded: display antifungal activity | decrease in average GUS activity | has antifungal activity | showed antifungal activity; also recorded: display antifungal activity | showed antifungal activity; also recorded: display antifungal activity | 2.2±0.1 |  |  | 
LBNL-9827-1: antifungal polypeptide from Monascus ruber IMV 00127; identical to SEQ ID NO:9 without 3 N-terminal amino acids (LSKFGGECSLKHNTCTYLKGGKNHVVNCGSAANKKCKSDRHHCEYDEHHKRVDCQTPV) | display antifungal activity | active against FVE; also recorded: display antifungal activity | display antifungal activity | display antifungal activity |  |  |  |  |  |  |  |  |  | 
B1 |  | inhibited FVE, FGR, CGR, and DMA in a dose-dependent fashion; also recorded: inhibited Colletotrichum graminicola, Diplodia maydis, Fusarium graminearum, and Fusarium verticillioides in a dose-dependent fashion; also recorded: display antifungal activity |  |  |  |  |  |  |  |  |  | inhibited FVE, FGR, CGR, and DMA in a dose-dependent fashion; also recorded: inhibited Colletotrichum graminicola, Diplodia maydis, Fusarium graminearum, and Fusarium verticillioides in a dose-dependent fashion; also recorded: display antifungal activity | inhibited FVE, FGR, CGR, and DMA in a dose-dependent fashion; also recorded: inhibited Colletotrichum graminicola, Diplodia maydis, Fusarium graminearum, and Fusarium verticillioides in a dose-dependent fashion; also recorded: display antifungal activity | inhibited FVE, FGR, CGR, and DMA in a dose-dependent fashion; also recorded: inhibited Colletotrichum graminicola, Diplodia maydis, Fusarium graminearum, and Fusarium verticillioides in a dose-dependent fashion; also recorded: display antifungal activity
